Assay results taken from PubChem BioAssay (NCI).
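Where inhibition never reached the appropriate level, the endpoint shown equals the highest concentration tested. Otherwise, values were interpolated linearly from a five-concentration, 48-hour dose response in 96-well plates. TGI: total growth inhibition.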

Assays:
Test in all cases: inhibition of tumour cell growth, NCI panel, 48 h
A498 renal = tested on: A498 renal
A549 NSCLC = tested on: A549 NSCLC
CCRF-CEM leukemia = tested on: CCRF-CEM leukemia
DU-145 prostate = tested on: DU-145 prostate
HCT-15 colon = tested on: HCT-15 colon
HOP-92 NSCLC = tested on: HOP-92 NSCLC
IGROV1 ovarian = tested on: IGROV1 ovarian
K-562 leukemia = tested on: K-562 leukemia
MCF7 breast = tested on: MCF7 breast
MDA-N = tested on: MDA-N
NCI-H23 lung = tested on: NCI-H23 lung
OVCAR-4 ovarian = tested on: OVCAR-4 ovarian
SK-MEL-2 melanoma = tested on: SK-MEL-2 melanoma
SK-OV-3 ovarian = tested on: SK-OV-3 ovarian
SW-620 colon = tested on: SW-620 colon
TK-10 renal = tested on: TK-10 renal
U251 CNS = tested on: U251 CNS
UACC-257 melanoma = tested on: UACC-257 melanoma
UACC-62 melanoma = tested on: UACC-62 melanoma
SF-539 CNS = tested on: SF-539 CNS

Row | SMILES | TGI (A498 renal) | TGI (A549 NSCLC) | TGI (CCRF-CEM leukemia) | TGI (DU-145 prostate) | TGI (HCT-15 colon) | TGI (HOP-92 NSCLC) | TGI (IGROV1 ovarian) | TGI (K-562 leukemia) | TGI (MCF7 breast) | TGI (MDA-N) | TGI (NCI-H23 lung) | TGI (OVCAR-4 ovarian) | TGI (SK-MEL-2 melanoma) | TGI (SK-OV-3 ovarian) | TGI (SW-620 colon) | TGI (TK-10 renal) | TGI (U251 CNS) | TGI (UACC-257 melanoma) | TGI (UACC-62 melanoma) | TGI (SF-539 CNS)
1 | O=C1NC(=O)/C(=C/c2ccc(S(=O)(=O)N/N=C\C(O)C(O)C(O)C(O)CO)cc2)N1 (stereo not given) | > 100 µM | > 100 µM | > 100 µM | > 100 µM | > 100 µM | > 100 µM | > 100 µM | > 100 µM | > 100 µM | > 100 µM | > 100 µM | > 100 µM | > 100 µM | > 100 µM | > 100 µM | > 100 µM | > 100 µM | > 100 µM | > 100 µM | –
2 | COc1ccccc1N=N/C(=N\NC(=O)c1ccc(C)cc1)c1ccc(N(CCC#N)CCC#N)cc1C | > 100 µM | > 100 µM | > 100 µM | > 100 µM | > 100 µM | > 100 µM | > 100 µM | > 100 µM | > 100 µM | > 100 µM | 94.4 µM | > 100 µM | > 100 µM | > 100 µM | > 100 µM | > 100 µM | > 100 µM | > 100 µM | – | > 100 µM
3 | CN1C=Cc2nccc3cc4c(c1c23)OCO4 | 20.5 µM | > 55.4 µM | > 100 µM | > 25.1 µM | > 66.3 µM | > 68.5 µM | > 39.2 µM | > 100 µM | > 23.6 µM | 8.62 µM | 10.3 µM | 47.5 µM | 11.3 µM | 61.6 µM | > 100 µM | 35.4 µM | 32.4 µM | 16.9 µM | 5.36 µM | –
4 | O=C(Cc1nc2ncccc2[nH]c1=O)c1c[nH]c2ccccc12 | 31.7 µM | 47.8 µM | 40.3 µM | 32.7 µM | 95.8 µM | 38.4 µM | 39 µM | 63.2 µM | 32.3 µM | 45.4 µM | 54 µM | – | 30.8 µM | 29.8 µM | 40.5 µM | 30.4 µM | 35.1 µM | 36.1 µM | 31.2 µM | 31.5 µM
5 | O=C(NCCN1CCCCC1)c1ccc(I)cc1 | 69.3 µM | > 100 µM | > 100 µM | > 100 µM | > 100 µM | > 100 µM | > 100 µM | > 100 µM | > 100 µM | > 100 µM | > 100 µM | > 100 µM | > 100 µM | > 100 µM | > 100 µM | > 100 µM | > 100 µM | > 100 µM | – | > 100 µM
6 | CCCCCCCCCCCCOc1ccc(/C=C/C2=[N+](CCCl)CCO2)cc1 | > 100 µM | > 100 µM | > 100 µM | > 100 µM | > 100 µM | 86.5 µM | 77.6 µM | > 100 µM | > 100 µM | > 100 µM | – | > 100 µM | > 100 µM | > 100 µM | > 100 µM | > 100 µM | 58.4 µM | > 100 µM | > 100 µM | > 100 µM
7 | CCOC(=O)c1nc2ccccc2nc1Oc1cc(OC)c(OC)c(OC)c1 | > 100 µM | > 100 µM | > 100 µM | > 100 µM | > 100 µM | > 100 µM | > 100 µM | – | > 100 µM | > 100 µM | > 100 µM | > 100 µM | > 100 µM | – | > 100 µM | > 100 µM | 99.4 µM | > 100 µM | > 100 µM | > 100 µM
8 | COC(=O)[C@@H](Cc1ccccc1)N1O[C@]12CCCC[C@@H]2NC(=O)OC(C)(C)C (stereo not given in full) | > 100 µM | > 100 µM | 35.9 µM | 79 µM | 33.5 µM | 55.5 µM | 27.8 µM | > 100 µM | 28.5 µM | 39.1 µM | 51.8 µM | > 100 µM | 49 µM | – | 29.3 µM | 49 µM | 77.9 µM | > 100 µM | 48.7 µM | 33.3 µM
9 | N#Cc1nc(-c2ccccn2)oc1N | > 100 µM | – | > 100 µM | > 100 µM | > 100 µM | > 100 µM | > 100 µM | > 100 µM | > 100 µM | > 100 µM | > 100 µM | > 100 µM | > 100 µM | > 100 µM | > 100 µM | > 100 µM | > 100 µM | > 100 µM | > 100 µM | –
10 | COc1cc(S(=O)(=O)Nc2ccc(-c3csc(N4C(=O)C(Cl)C4c4ccccc4)n3)cc2)ccc1Cl (stereo not given) | 68.8 µM | > 100 µM | > 100 µM | 38.7 µM | > 100 µM | 33.7 µM | 22.4 µM | > 100 µM | > 100 µM | > 100 µM | 89.3 µM | 87.3 µM | > 100 µM | > 100 µM | > 100 µM | > 100 µM | – | > 100 µM | 51.2 µM | > 100 µM
11 | COc1cc(Nc2nnc3n2S(=O)(=O)c2cc(C)c(Cl)cc2S3)cc(OC)c1 | 85.8 µM | 30 µM | > 100 µM | 44.2 µM | > 100 µM | 27 µM | 6.26 µM | > 100 µM | > 100 µM | > 100 µM | 43.7 µM | 24.4 µM | – | 31.4 µM | – | 81.3 µM | 29.2 µM | > 100 µM | 57.6 µM | 6.31 µM
12 | CN(C)C=NCCN1CCOCC1 | > 100 µM | > 100 µM | > 100 µM | > 100 µM | > 100 µM | > 100 µM | > 100 µM | > 100 µM | > 100 µM | > 100 µM | > 100 µM | > 100 µM | > 100 µM | > 100 µM | – | > 100 µM | > 100 µM | > 100 µM | > 100 µM | > 100 µM
